Data on 2 molecules can be found in patent US7951816B2, “Compound containing basic group and use thereof” (Ono Pharmaceutical Co., Ltd., priority 2004, dated 2011).

One data set addresses T1, CXCR4 (Homo sapiens, UniProt P61073).
T1 construct: a human T cell strain in which CXCR4 is known to be expressed; endogenous in cells; host or cells: CEM cells (human T cell line), whole cells
The data set can be described thus: Study for inhibition of binding human SDF-1 to CEM cells (125I-SDF-1). The following applies: 125I-SDF-1 binding to CEM cells. From the text:
Specifically, as a system of screening a compound that inhibits the binding between SDF-1 and CXCR4, for example a system of measuring the binding between iodine-labeled SDF-1 and a human T cell strain in which CXCR4 is known to be expressed is operable. The identical idea is possible since macrophage (R5) HIV and RANTES, MIP-1α, and MIP-1β all bind to CCR5.
Study for Inhibition of Binding Human SDF-1 to CEM Cells
To human T cell strain CEM cells in a binding buffer (containing HEPES and BSA), the test compound and ^125I-SDF-1 (NEN) were added and the mixture was incubated at 4° C. for 60 minutes. The reacted CEM cells were rapidly filtrated with a GF/B membrane filter plate (Packard) to adsorb. The plate was washed with PBS three times and then dried. Microscint+20 (Packard) was added thereto. An amount of the radioactivity bound to the CEM cells was measured using Top Count (Packard) and inhibition (%) of the test compound was calculated according to the following equation: Inhibition={(Et−Ea)/(Et−Ec)}×100
Et: amount of radioactivity when the test compound is not added,
Ec: amount of radioactivity when non-radioactive SDF-1 (Pepro Tech) is added in an amount of 1000 times as much as ^125I-SDF-1 as a test compound, and
Ea: amount of radioactivity when the test compound is added.

The nature of data set [1]: Influence on blood pressure and heart rate in urethane-anesthetized rat, intravenous cumulative dosing. The data set is classed as in vivo. The source says: Measuring of Influence of a Compound of the Present Invention on Blood Pressure and Heart Rate
A rat was anesthetized with urethane (1.2 g/kg subcutaneous administration). After neck midline dissection, a catheter for measuring blood pressure was inserted into a right common carotid artery. Then, after dissecting inguinal region, a catheter for chemical injection was inserted into a femoral vein and fixed. A catheter for measurement of blood pressure was connected to a pressure transducer and then the pressure waveform was recorded on a thermal writing pen recorder through an amplifier for strain compression (AP-641G (manufactured by NIHON KOHDEN CORPORATION)). In this case, regarding a heart rate, a value through an cardiotachometer (AT-601G (manufactured by NIHON KOHDEN CORPORATION)) using the pressure waveform obtained from the amplifier for strain compression as a trigger was recorded on a thermal writing pen recorder. The test compound was dissolved in a 10% solubilizing agent/physiological saline solution (volume ratio of polyoxyethylene hydroxystearate:propylene glycol:physiological saline=7:3:190) so as to adjust the concentration to 0.1, 0.3, 1, 3 or 10 mg/mL to prepare solutions. Each solution was intravenous administered at 1 mL/Kg through the […] over about 10 seconds. Accumulative administration of stepwise increasing of a dosage was carried out to an individual.

T1 sequence (P61073 whole entry): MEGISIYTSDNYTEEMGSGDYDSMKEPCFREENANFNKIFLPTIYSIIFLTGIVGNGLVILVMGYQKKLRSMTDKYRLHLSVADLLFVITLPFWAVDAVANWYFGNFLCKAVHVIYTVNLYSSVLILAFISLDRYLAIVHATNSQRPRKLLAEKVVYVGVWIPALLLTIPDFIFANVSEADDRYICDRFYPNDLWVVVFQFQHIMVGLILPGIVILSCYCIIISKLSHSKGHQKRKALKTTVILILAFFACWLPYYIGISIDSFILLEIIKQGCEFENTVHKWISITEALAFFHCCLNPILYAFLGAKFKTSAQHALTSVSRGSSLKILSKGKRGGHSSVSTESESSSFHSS

Take `CCCN(CCC)CCCCNCc1ccc(C(=O)N(Cc2ncc[nH]2)Cc2ncc[nH]2)cc1` [Compound 10, 4-({[4-(dipropylamino)butyl]amino}methyl)-N,N-bis(1H-imidazol-2-ylmethyl)benzamide]: the IC50 on CXCR4 is 27 nM.
Regarding `CCCN(CCC)CCCCNCc1ccc(CN(Cc2ncc[nH]2)C(=O)c2ncc[nH]2)cc1` [Compound 19, N-[4-({[4-(dipropylamino)butyl]amino}methyl)benzyl]-N-(1H-imidazol-2-ylmethyl)-1H-imidazole-2-carboxamide], in data set [1] (3 mg/kg or less), the “effect of decreasing blood pressure” value is “not recognized”. For the same molecule, the “rate of increase in the heart rate” value in data set [1] (10 mg/kg) is given as 2%. For the same molecule, the “influence on the heart rate” value in data set [1] (low dosage) is given as “no influence on the heart rate”.
